Experimental data published in paper PMC11583597, “Brain uptake pharmacokinetics of albiglutide, dulaglutide, tirzepatide, and DA5-CH in the search for new treatments of Alzheimer’s and Parkinson’s diseases” (Tissue Barriers, 2023).

Key:
[1] = Octanol/buffer partition coefficient (lipid solubility); type: physicochemical; conditions: pH 7.5
Protocol: We measured the lipid solubility of the IRAs, using octanol and PB. Briefly, 1 × 10^5 counts per minute (cpm) of each ^125I/^14C-IRA were added to triplicate tubes containing equal volumes PB and octanol (Sigma-Aldrich). This solution was vigorously mixed for 1 min and centrifuged at 5500 ×g for 10 min to separate the two phases. Aliquots of 100 μl were taken in duplicate from each phase, and total radioactivity was counted in a gamma counter (Wizard2, Perkin-Elmer) or beta counter (TriCarb 3110TR, Perkin-Elmer). The ratio of the cpm in the octanol phase to the cpm in the buffer phase equates to the mean partition coefficient (Pcoeff) and indicates lipophilicity. The log value for the coefficient can be either greater than unity, indicative of a lipophilic compound, or less than unity, indicative of a hydrophilic compound.

[2] = Long-term (6 h) measurement of brain uptake; type: in vivo, male CD-1 mice; conditions: mouse, in vivo, iv
Protocol: Substances that are enzymatically stable in blood and have slow clearance from the circulation can slowly enter the brain using the extracellular pathways.[63],[64] […] Albumin enters the brain by extracellular pathways,[70] and so we used albumin in two ways: we used ^99mTc-Alb circulating for 10 min to measure vascular space and ^99mTc-Alb circulating for 6 h to measure brain uptake by extracellular pathways. This is similar to the time-differential methodology developed by Poduslo and Curran to measure a substance’s vascular space and its uptake rate.[71] Following anesthetization, the jugular vein and right carotid artery were exposed. Mice were given an iv injection of 0.1% BSA-LR containing 1 × 10^6 cpm of ^125I-IRA or 5 × 10^5 cpm of ^99mTc-Alb, which circulated for 6 h. Mice receiving only the ^125I-IRA were given an injection of 5 × 10^5 cpm of ^99mTc-Alb 10 min prior to the end of the 6 h circulation time to act as a vascular marker. A separate set of mice received an iv injection of both 1 × 10^6 cpm of ^125I-IRA and 5 × 10^5 cpm of ^99mTc-Alb that circulated for 10 min. Following the 10 min or 6 h circulation time points, blood and brain were collected as described above. Thus, we had B/S ratios for ^99mTc-Alb measuring vascular space (10 min circulation time) and B/S ratios for ^99mTc-Alb measuring vascular space plus uptake by the extracellular pathways (6 h circulation time) which could be compared to the B/S ratios for the ^125I-IRAs after 10 min and 6 h of circulation.
Immediately after counting the radioactivity, the blood and brains from the 10 min and 6 h time points were processed as described in Section 2.5 for in vivo stability. For further comparison, data from the 1 h time point were taken from the original pharmacokinetic uptake study. The ^125I-IRA brain % acid precipitation (%AP) was divided by the ^125I-IRA serum %AP at each time point to calculate the %AP B/S ratio. This value was multiplied by the B/S ratio for each ^125I-IRA to correct for degradation over the 10 min, 1 h, or 6 h time periods. […]

[3] = design: species or system male CD-1 mice; conditions: mouse, in vivo, iv
Protocol: Following anesthetization, the jugular vein and right carotid artery were exposed. Mice were given a jugular vein injection of 0.2 ml BSA-LR containing 3 × 10^5 cpm-1×10^6 cpm of an ^125I/^14C-labeled IRA and 5 × 10^5 cpm of ^99mTc-Alb. Blood samples were collected from the carotid artery at various time points from 1 to 60 min after iv injection (see Figure 1). Mice were then decapitated, and their brains were removed and weighed. After clotting, the arterial blood was centrifuged at 3200 ×g for 10 min. Levels of radioactivity in serum (50 μl) and brain were measured in a gamma counter for ^125I and ^99mTc for 3 min. After ^99mTc decay, ^14C-DA5-CH samples were solubilized with Solvable (Sigma), transferred to scintillation vials containing Ecoscint (National Diagnostics) and ^14C was measured in a beta counter. Sample injection checks were taken throughout the course of the study to calculate the mean injected cpm/mouse. To determine the rate of ^125I/^14C-IRA clearance from the serum, the results were expressed as the percentage of an injected dose in each ml of serum (%Inj/ml), which was calculated by dividing the cpm in a ml of serum (cpm/ml serum) by the cpm injected into the mouse (cpm/Inj):
(2) %Inj/ml=100×cpm/mlserum/meancpm/Inj
The log(%Inj/ml) was plotted against time to calculate the rate of clearance from the serum. To calculate the half-time clearance in minutes, the inverse slope […] of the curve for each IRA was multiplied by 0.301 (log10[2]). The blood and brain cpm data were used for the measurement of brain influx and initial volume of distribution in brain as described in Section 2.7.

[4] = human, in vivo; cited from earlier work

Q: With CC[C@H](C)[C@H](NC(=O)[C@H](CC(C)C)NC(=O)[C@H](Cc1c[nH]c2ccccc12)NC(=O)[C@H](CCC(N)=O)NC(=O)[C@@H](NC(=O)[C@H](Cc1ccccc1)NC(=O)[C@H](C)NC(=O)[C@H](CCCCNC(=O)COCCOCCNC(=O)COCCOCCNC(=O)CC[C@H](NC(=O)CCCCCCCCCCCCCCCCCCC(=O)O)C(=O)O)NC(=O)[C@H](CCC(N)=O)NC(=O)[C@H](C)NC(=O)[C@@H](NC(=O)[C@H](CCCCN)NC(=O)[C@H](CC(=O)O)NC(=O)[C@H](CC(C)C)NC(=O)C(C)(C)NC(=O)[C@@H](NC(=O)[C@H](CO)NC(=O)[C@H](Cc1ccc(O)cc1)NC(=O)[C@H](CC(=O)O)NC(=O)[C@H](CO)NC(=O)[C@@H](NC(=O)[C@H](Cc1ccccc1)NC(=O)[C@@H](NC(=O)CNC(=O)[C@H](CCC(=O)O)NC(=O)C(C)(C)NC(=O)[C@@H](N)Cc1ccc(O)cc1)[C@@H](C)O)[C@@H](C)O)[C@@H](C)CC)[C@@H](C)CC)C(C)C)C(=O)N[C@@H](C)C(=O)NCC(=O)NCC(=O)N1CCC[C@H]1C(=O)N[C@@H](CO)C(=O)N[C@@H](CO)C(=O)NCC(=O)N[C@@H](C)C(=O)N1CCC[C@H]1C(=O)N1CCC[C@H]1C(=O)N1CCC[C@H]1C(=O)N[C@@H](CO)C(N)=O [Tirzepatide] as the molecule, how does the “Lipid Solubility Partition Coefficient” value [1] read?
A: 0.1318 ± 0.0126

Q: What about the “Log Partition Coefficient (Log P)” value [1] of the same molecule?
A: -0.884 ± 0.0405

Q: What about the “Amount present in brain at 6 h (AP corrected delta %Inj/g)” value [2] of the same molecule?
A: 0.005 %Inj/g

Q: And the “Half-Time Serum Clearance (t1/2)” value [3]?
A: 30.62 min

Q: And the “half-lives in human serum” value [4]?
A: 111 to 124 h
